# Laboratory results as given in patent EP4722201A1, “3-PHENYLISOXAZOLINE-5-CARBOXAMIDE COMPOUND, AND PREPARATION METHOD THEREFOR, HERBICIDAL COMPOSITION THEREOF AND USE THEREOF” (Jiangsu Flag Chemical Industry Co., Ltd, priority 2023, dated 2024).
# How the values were obtained:
# Assay in all cases: Indoor herbicide activity determination, Seed Treatment; pre-emergence (soil spray)
# Type in all cases: in vivo
# [1] = system: Leptochloa chinensis
# In short: (§1)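 Weed seeds were sown in 7 cm pots of sandy nutrient soil (pH 6.1, 1% organic matter), covered, bottom-watered and held 24 h in a constant-temperature illuminated room before the soil surface was sprayed in a traveling spray tower. Fresh-weight inhibition versus untreated plants was scored 21 days later.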
# [2] = system: Eleusine indica
# In short: as §1
# [3] = system: Aegilops tauschii; settings: read-out: Herbicidal activities (inhibition rate) Aegilops tauschii; for inhibition at 120 g/ha: 120 g a.i./ha; for inhibition at 60 g/ha: 60 g a.i./ha
# In short: as §1
# [4] = system: Alopecurus japonicus
# In short: as §1
# [5] = system: Digitaria sanguinalis; settings: read-out: Herbicidal activities (inhibition rate) Digitaria sanguinalis; for inhibition at 120 g/ha: 120 g a.i./ha; for inhibition at 60 g/ha: 60 g a.i./ha
# In short: as §1
# [6] = system: Alopecurus myosuroides
# In short: as §1
# [7] = system: Eclipta prostrata; settings: read-out: Herbicidal activities (inhibition rate) Eclipta prostrata; for inhibition at 120 g/ha: 120 g a.i./ha; for inhibition at 60 g/ha: 60 g a.i./ha
# In short: as §1
# [8] = system: Lolium multiflorum
# In short: as §1
# [9] = system: Cyperus iria; settings: read-out: Herbicidal activities (inhibition rate) Cyperus iria; for inhibition at 120 g/ha: 120 g a.i./ha; for inhibition at 60 g/ha: 60 g a.i./ha
# In short: as §1
SMILES,"Herbicidal activities, Leptochloa chinensis (inhibition rate class) ([1]; Dosage 240 g a.i./ha)","Herbicidal activities, Eleusine indica (inhibition rate class) ([2]; Dosage 240 g a.i./ha)",inhibition at 120 g/ha [3] [%],"Herbicidal activities, Alopecurus japonicus (inhibition rate class) ([4]; Dosage 240 g a.i./ha)",inhibition at 120 g/ha [5] [%],"Herbicidal activities, Alopecurus myosuroides (inhibition rate class) ([6]; Dosage 240 g a.i./ha)",inhibition at 120 g/ha [7] [%],"Herbicidal activities, Lolium multiflorum (inhibition rate class) ([8]; Dosage 240 g a.i./ha)",inhibition at 120 g/ha [9] [%],other results
C=CC1(C(=O)N[C@H]2CO[C@@H](C(=O)OC)C2)CC(c2cc(F)cc(C(F)(F)F)c2)=NO1 (mixture of isomers) [I-368],A (A indicates that the inhibition rate was greater than or equal to 80% to 100%),A (A indicates that the inhibition rate was greater than or equal to 80% to 100%),80 to 100,A (A indicates that the inhibition rate was greater than or equal to 80% to 100%),60 to 80,A (A indicates that the inhibition rate was greater than or equal to 80% to 100%),40 to 60,A (A indicates that the inhibition rate was greater than or equal to 80% to 100%),60 to 80,
C=CC1(C(=O)N[C@H]2CO[C@@H](C(=O)OC)C2)CC(c2cc(F)cc(OC(F)(F)F)c2)=NO1 (mixture of isomers) [I-369],A (A indicates that the inhibition rate was greater than or equal to 80% to 100%),A (A indicates that the inhibition rate was greater than or equal to 80% to 100%),80 to 100,A (A indicates that the inhibition rate was greater than or equal to 80% to 100%),60 to 80,A (A indicates that the inhibition rate was greater than or equal to 80% to 100%),40 to 60,A (A indicates that the inhibition rate was greater than or equal to 80% to 100%),60 to 80,
C=CC1(C(=O)N[C@H]2CO[C@@H](C(=O)OC)C2)CC(c2cc(F)cc(OC(F)F)c2)=NO1 (mixture of isomers) [I-370],A (A indicates that the inhibition rate was greater than or equal to 80% to 100%),A (A indicates that the inhibition rate was greater than or equal to 80% to 100%),80 to 100,A (A indicates that the inhibition rate was greater than or equal to 80% to 100%),60 to 80,A (A indicates that the inhibition rate was greater than or equal to 80% to 100%),60 to 80,A (A indicates that the inhibition rate was greater than or equal to 80% to 100%),80 to 100,
C=CC1(C(=O)N[C@H]2CO[C@@H](C(=O)OC)C2)CC(c2cc(Cl)cc(C(F)(F)F)c2)=NO1 (mixture of isomers) [I-371],A (A indicates that the inhibition rate was greater than or equal to 80% to 100%),A (A indicates that the inhibition rate was greater than or equal to 80% to 100%),80 to 100,A (A indicates that the inhibition rate was greater than or equal to 80% to 100%),60 to 80,A (A indicates that the inhibition rate was greater than or equal to 80% to 100%),40 to 60,A (A indicates that the inhibition rate was greater than or equal to 80% to 100%),60 to 80,
C=CC1(C(=O)N[C@H]2CO[C@@H](C(=O)OC)C2)CC(c2cc(Cl)cc(OC(F)(F)F)c2)=NO1 (mixture of isomers) [I-372],A (A indicates that the inhibition rate was greater than or equal to 80% to 100%),A (A indicates that the inhibition rate was greater than or equal to 80% to 100%),80 to 100,A (A indicates that the inhibition rate was greater than or equal to 80% to 100%),80 to 100,A (A indicates that the inhibition rate was greater than or equal to 80% to 100%),80 to 100,A (A indicates that the inhibition rate was greater than or equal to 80% to 100%),80 to 100,
C=CC1(C(=O)N[C@H]2CO[C@@H](C(=O)OC)C2)CC(c2cc(Cl)cc(OC(F)F)c2)=NO1 (mixture of isomers) [I-373],A (A indicates that the inhibition rate was greater than or equal to 80% to 100%),B (B indicates that the inhibition rate was greater than or equal to 60% to less than 80%),60 to 80,A (A indicates that the inhibition rate was greater than or equal to 80% to 100%),80 to 100,A (A indicates that the inhibition rate was greater than or equal to 80% to 100%),80 to 100,A (A indicates that the inhibition rate was greater than or equal to 80% to 100%),60 to 80,
C=C[C@]1(C(=O)N[C@H]2C=C[C@@H](C(=O)OCC)C2)CC(c2cc(F)cc(C(F)(F)F)c2)=NO1 [I-429],,,,,,,,,,"Herbicidal activities, Leptochloa chinensis (inhibition rate class) ([1]; Dosage 120 g a.i./ha): A (A indicates that the inhibition rate was greater than or equal to 80% to 100%); Herbicidal activities, Eleusine indica (inhibition rate class) ([2]; Dosage 120 g a.i./ha): A (A indicates that the inhibition rate was greater than or equal to 80% to 100%); inhibition at 60 g/ha [3]: 60 to 80%; Herbicidal activities, Alopecurus japonicus (inhibition rate class) ([4]; Dosage 120 g a.i./ha): A (A indicates that the inhibition rate was greater than or equal to 80% to 100%); inhibition at 60 g/ha [5]: 60 to 80%; Herbicidal activities, Alopecurus myosuroides (inhibition rate class) ([6]; Dosage 120 g a.i./ha): A (A indicates that the inhibition rate was greater than or equal to 80% to 100%); inhibition at 60 g/ha [7]: 60 to 80%; Herbicidal activities, Lolium multiflorum (inhibition rate class) ([8]; Dosage 120 g a.i./ha): A (A indicates that the inhibition rate was greater than or equal to 80% to 100%); inhibition at 60 g/ha [9]: 60 to 80%"
C=C[C@]1(C(=O)N[C@H]2C=C[C@@H](C(=O)OC(C)C)C2)CC(c2cc(F)cc(OC(F)(F)F)c2)=NO1 [I-463],,,,,,,,,,"Herbicidal activity (inhibition rate class), Leptochloa chinensis ([1]; Dosage 120 g a.i./ha): A (A indicates that the inhibition rate was greater than or equal to 80% to 100%); Herbicidal activity (inhibition rate class), Eleusine indica ([2]; Dosage 120 g a.i./ha): A (A indicates that the inhibition rate was greater than or equal to 80% to 100%); inhibition at 60 g/ha [3]: 60 to 80%; Herbicidal activity (inhibition rate class), Alopecurus japonicus ([4]; Dosage 120 g a.i./ha): A (A indicates that the inhibition rate was greater than or equal to 80% to 100%); inhibition at 60 g/ha [5]: 60 to 80%; Herbicidal activity (inhibition rate class), Alopecurus myosuroides ([6]; Dosage 120 g a.i./ha): A (A indicates that the inhibition rate was greater than or equal to 80% to 100%); inhibition at 60 g/ha [7]: 60 to 80%; Herbicidal activity (inhibition rate class), Lolium multiflorum ([8]; Dosage 120 g a.i./ha): A (A indicates that the inhibition rate was greater than or equal to 80% to 100%); inhibition at 60 g/ha [9]: 60 to 80%"
CC1(C(=O)N[C@H]2C=C[C@@H](C(=O)O)C2)CC(c2cc(Cl)cc(OC(F)(F)F)c2)=NO1 (stereo partly drawn) [I-485],,,80 to 100,,60 to 80,,80 to 100,,80 to 100,"Herbicidal activity (inhibition rate class), Leptochloa chinensis ([1]; Dosage 240 g a.i./ha): A (A indicates that the inhibition rate was greater than or equal to 80% to 100%); Herbicidal activity (inhibition rate class), Eleusine indica ([2]; Dosage 240 g a.i./ha): A (A indicates that the inhibition rate was greater than or equal to 80% to 100%); Herbicidal activity (inhibition rate class), Alopecurus japonicus ([4]; Dosage 240 g a.i./ha): A (A indicates that the inhibition rate was greater than or equal to 80% to 100%); Herbicidal activity (inhibition rate class), Alopecurus myosuroides ([6]; Dosage 240 g a.i./ha): A (A indicates that the inhibition rate was greater than or equal to 80% to 100%); Herbicidal activity (inhibition rate class), Lolium multiflorum ([8]; Dosage 240 g a.i./ha): A (A indicates that the inhibition rate was greater than or equal to 80% to 100%)"
COC(=O)[C@@H]1C=C[C@H](NC(=O)C2(C)CC(c3cc(Cl)cc(OC(F)(F)F)c3)=NO2)C1 (stereo partly drawn) [I-486],,,80 to 100,,60 to 80,,80 to 100,,80 to 100,"Herbicidal activity (inhibition rate class), Leptochloa chinensis ([1]; Dosage 240 g a.i./ha): A (A indicates that the inhibition rate was greater than or equal to 80% to 100%); Herbicidal activity (inhibition rate class), Eleusine indica ([2]; Dosage 240 g a.i./ha): A (A indicates that the inhibition rate was greater than or equal to 80% to 100%); Herbicidal activity (inhibition rate class), Alopecurus japonicus ([4]; Dosage 240 g a.i./ha): A (A indicates that the inhibition rate was greater than or equal to 80% to 100%); Herbicidal activity (inhibition rate class), Alopecurus myosuroides ([6]; Dosage 240 g a.i./ha): A (A indicates that the inhibition rate was greater than or equal to 80% to 100%); Herbicidal activity (inhibition rate class), Lolium multiflorum ([8]; Dosage 240 g a.i./ha): A (A indicates that the inhibition rate was greater than or equal to 80% to 100%)"
CSCCOC(=O)[C@@H]1C=C[C@H](NC(=O)C2(C)CC(c3cc(Cl)cc(OC(F)(F)F)c3)=NO2)C1 (stereo partly drawn) [I-487],,,80 to 100,,60 to 80,,80 to 100,,80 to 100,"Herbicidal activity (inhibition rate class), Leptochloa chinensis ([1]; Dosage 240 g a.i./ha): A (A indicates that the inhibition rate was greater than or equal to 80% to 100%); Herbicidal activity (inhibition rate class), Eleusine indica ([2]; Dosage 240 g a.i./ha): A (A indicates that the inhibition rate was greater than or equal to 80% to 100%); Herbicidal activity (inhibition rate class), Alopecurus japonicus ([4]; Dosage 240 g a.i./ha): A (A indicates that the inhibition rate was greater than or equal to 80% to 100%); Herbicidal activity (inhibition rate class), Alopecurus myosuroides ([6]; Dosage 240 g a.i./ha): A (A indicates that the inhibition rate was greater than or equal to 80% to 100%); Herbicidal activity (inhibition rate class), Lolium multiflorum ([8]; Dosage 240 g a.i./ha): A (A indicates that the inhibition rate was greater than or equal to 80% to 100%)"
